This is an account of results in patent US4868191A, “Alkaloid compounds, and pharmaceutical compositions containing them” (Harbor Branch Oceanographic Institution, Inc., priority 1988, dated 1989).

Data set [1] is described as follows: Immunomodulatory activity, two-way mixed lymphocyte reaction assay (% LCV). As to conditions: mouse, lymphocytes. Type of data set: cell-based, murine. From the text:
This example concerns immunomodulatory activity of compounds of the invention on murine derived, two-way mixed lymphocyte reaction assay.

Data set [2] relates to A-549 human lung carcinoma cells. Nature of the data set: Human Tumor Cell Line Assay, A-549. It counts as cell-based. The conditions noted are these: 120 hours, read-out: A-549 activity score (cell density vs control). How it is done:
(§1) The following assay methods are utilized to evaluate the antitumor activity of the alkaloid compounds of the invention.
(§2) Human Tumor Cell Line Assay
(§3) Maintenance of Cell Lines
(§4) HCT-8 human colon tumor cells are grown in RPMI 1640 medium. A-549 human lung carcinoma cells are grown in Dublecco MEM medium. T-47D human breast cancer cells are cultured in Eagles MEM medium. All media (Biologos, Inc.) are supplemented with 10% fetal bovine serum and contain 50 ug/ml gentamicin. All humand tumor cell lines are incubated in humidified air containing 5% CO2 at 37° C. and subcultured once a week. The seeding levels are 200,000 T-47D cells, 60,000 HCT-8 cells and 300,000 A-549 cells per T-25 Flask. Vinblastine is used as a positive control.
(§5) 2. Incubate is a CO2 incubator for 48 hours.
(§6) 3. Add compound to each well and incubate for an additional 120 hours.
(§7) 4. Discard medium and stain with methylene blue (HCT-8) or crystal violet (A-549 and T-47D).
(§8) 5. Compare cell density of compound-treated with that of the control (no compound added) as follows: ND (not detectable), 90% 1+, 75-90% 2+, 50-74% 3+, 25-49% 4+, 25% of control growth.
(§9) The positive control is Vinblastine in aqueous solution at the following concentrations: […]

For data set [3], the system named is Mouse P388. In words: Mouse P388 in vivo antitumor activity (T/C). As to conditions: Mouse P388, at 5 mg/kg.
The test system of data set [4] is P388 mouse leukemia cells. In words: P338 (P388) Mouse Leukemia Cell Assay, in vitro. As to conditions: 48 hours. It counts as cell-based. How it is done: as §1
P338 Mouse Leukemia Cell Assay
as §3
P338 mouse leukemis cells are grown in Dulbecco MEM medium with 10% horse serum, 4 mM glutamine, and 20 ug/ml gentamycin (Biologos, Inc.). Cells are incubated in humidified air containing 10% CO2 at 37° C. and subcultured 2 time per week.
1. Add compound to each well of a 24-well plate to tube and allow solvent to evaporate to dryness.
2. Add 2 ml (1.2×10^5) cells to each well or tube and mix.
3. Incubate in 10% CO2 at 37° C. for 48 hours.
4. Read plates with an inverted microscope, scoring activity from 1+ to 4+ as follows: ND (not detectable), 90% 1+, 75-90% 2+, 50-74% 3+, 25-49% 4+, 25% of control growth.
Alternatively, the activity may be designated as IC50 concentration which is the concentration of compound required to inhibit 50% of cell growth on the plate.
Cell counts are performed on each tube and results are reported as percent of control.

The test system of data set [5] is HCT-8 human colon tumor cells. In words: Human Tumor Cell Line Assay, HCT-8. It counts as cell-based. The conditions noted are these: 120 hours, read-out: HCT-8 activity score (cell density vs control). How it is done: as §1, §2, §3, §4, §5, §6, §7, §8, §9
The test system of data set [6] is T-47D human breast cancer cells. In words: Human Tumor Cell Line Assay, T-47D. It counts as cell-based. As to conditions: T47D, 120 hours, read-out: T-47D activity score (cell density vs control). Here is the method:
as §1, §2, §3, §4, §5, §6, §7, §8, §9

In brackets after ≈: the same amount, converted by molar mass.

As for `CN(C)CCc1c2c3c(c4scnc14)N(C)CCC3c1ccccc1N2` (stereo not shown) [Tetrahydrodercitin 1, tetrahydrodercitin 1], the viability in data set [1] (0.01 ug/well) came out at 100%; in data set [1] (0.1 ug/well) it was 91%; in data set [1] (1.0 ug/well), 49%; in data set [1] (10.0 ug/well), 41%.

For `CN(C)CCc1c2ncsc2c2c3c(c4ccccc4nc13)C=CN2C` [Dercitin 1, dercitin 1], the activity at 0.01 µg/mL was over 90% in data set [2] (A549, 0.01 ug/ml); over 90% in data set [5] (0.01 ug/ml); over 90% in data set [6] (0.01 ug/ml). Further, the activity at 0.1 µg/mL is under 25% in data set [2] (A549, 0.1 ug/ml); under 25% in data set [5] (0.1 ug/ml); under 25% in data set [6] (0.1 ug/ml). In addition, the activity at 1 µg/mL was under 25% in data set [2] (A549, 1 ug/ml); under 25% in data set [5] (1 ug/ml); under 25% in data set [6] (1 ug/ml). For the same molecule, the activity at 2 µg/mL in data set [2] (A549, 2 ug/ml) is under 25%; in data set [5] (2 ug/ml), under 25%; in data set [6] (2 ug/ml), under 25%. Moreover, the “in vivo T/C” value in data set [3] came out at 170%. The same molecule returned a half-inhibitory concentration (IC50) in data set [4] of 0.05 µg/mL (≈ 0.139 µM). The viability in data set [1] (0.01 ug/well) turned out to be 56%; in data set [1] (0.1 ug/well), 48%; in data set [1] (1.0 ug/well), 46%; in data set [1] (10.0 ug/well), 67%.

By viability is commonly meant the share of living cells, or the viability signal relative to a control. Usually IC50 stands for the midpoint of a concentration-inhibition curve. Low readings indicate greater potency, high ones weaker potency.
